Results taken from patent US20080004253A1, “Thiazolopyrimidine modulators of TRPV1” (priority 2006, published 2008).

Experiments:
human TRPV1 = biological target: T1, human TRPV1 (Homo sapiens, UniProt Q8NER1); assay: Functional assay: block of capsaicin-induced Ca2+ influx, human assay (hTRPV1/HEK293, FLIPR); assay type: cell-based; details: hTRPV1/HEK293 cells, 150 nM capsaicin challenge, Fluo-3 fluorescence; mean; > value = solubility limit in assay medium
T1 construct: expressed in transfected cells; host or cells: HEK293 (hTRPV1/HEK293), zeocin selection
T1 sequence (Q8NER1 whole entry): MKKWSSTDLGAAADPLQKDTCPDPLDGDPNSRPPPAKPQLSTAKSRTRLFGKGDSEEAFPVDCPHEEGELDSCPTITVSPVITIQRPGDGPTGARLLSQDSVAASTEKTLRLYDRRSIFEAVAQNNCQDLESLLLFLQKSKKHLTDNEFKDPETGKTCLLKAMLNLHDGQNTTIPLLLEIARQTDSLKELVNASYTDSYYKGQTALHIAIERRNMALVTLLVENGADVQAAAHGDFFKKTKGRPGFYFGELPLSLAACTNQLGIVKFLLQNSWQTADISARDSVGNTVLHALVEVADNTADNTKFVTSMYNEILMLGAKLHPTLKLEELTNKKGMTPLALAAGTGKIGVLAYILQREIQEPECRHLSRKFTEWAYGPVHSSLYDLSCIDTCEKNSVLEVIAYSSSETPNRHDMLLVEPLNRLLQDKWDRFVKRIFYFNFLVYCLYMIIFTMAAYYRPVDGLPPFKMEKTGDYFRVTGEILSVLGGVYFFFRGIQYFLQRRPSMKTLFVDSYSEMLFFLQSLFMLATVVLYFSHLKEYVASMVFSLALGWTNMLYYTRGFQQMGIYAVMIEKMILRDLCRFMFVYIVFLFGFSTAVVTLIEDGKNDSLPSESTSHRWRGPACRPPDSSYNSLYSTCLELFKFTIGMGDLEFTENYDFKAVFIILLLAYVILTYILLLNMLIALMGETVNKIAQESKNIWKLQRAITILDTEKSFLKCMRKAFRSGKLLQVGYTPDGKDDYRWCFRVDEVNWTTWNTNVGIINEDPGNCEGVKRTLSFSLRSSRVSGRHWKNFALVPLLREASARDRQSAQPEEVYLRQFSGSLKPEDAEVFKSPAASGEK
Method in brief: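 HEK293 cells stably expressing human TRPV1, fluo3-loaded, preincubated 30 min with compound (serial 3-fold dilutions from 10 μM, duplicate) in 20 μM Ca2+ buffer. Capsaicin response taken as fluo3 fluorescence change before vs 100 s after agonist; IC50 by non-linear regression, mean values; free base or TFA salt.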

rat TRPV1 = biological target: T2, rat TRPV1 (Rattus norvegicus, UniProt O35433); assay: Functional assay: block of capsaicin-induced Ca2+ influx, rat assay (rTRPV1/HEK293, FLIPR); assay type: cell-based; details: rTRPV1/HEK293 cells, capsaicin challenge, Fluo-3 fluorescence; mean; > value = solubility limit in assay medium
T2 construct: expressed in transfected cells; host or cells: HEK293 (rTRPV1/HEK293), geneticin selection
T2 sequence (O35433 whole entry): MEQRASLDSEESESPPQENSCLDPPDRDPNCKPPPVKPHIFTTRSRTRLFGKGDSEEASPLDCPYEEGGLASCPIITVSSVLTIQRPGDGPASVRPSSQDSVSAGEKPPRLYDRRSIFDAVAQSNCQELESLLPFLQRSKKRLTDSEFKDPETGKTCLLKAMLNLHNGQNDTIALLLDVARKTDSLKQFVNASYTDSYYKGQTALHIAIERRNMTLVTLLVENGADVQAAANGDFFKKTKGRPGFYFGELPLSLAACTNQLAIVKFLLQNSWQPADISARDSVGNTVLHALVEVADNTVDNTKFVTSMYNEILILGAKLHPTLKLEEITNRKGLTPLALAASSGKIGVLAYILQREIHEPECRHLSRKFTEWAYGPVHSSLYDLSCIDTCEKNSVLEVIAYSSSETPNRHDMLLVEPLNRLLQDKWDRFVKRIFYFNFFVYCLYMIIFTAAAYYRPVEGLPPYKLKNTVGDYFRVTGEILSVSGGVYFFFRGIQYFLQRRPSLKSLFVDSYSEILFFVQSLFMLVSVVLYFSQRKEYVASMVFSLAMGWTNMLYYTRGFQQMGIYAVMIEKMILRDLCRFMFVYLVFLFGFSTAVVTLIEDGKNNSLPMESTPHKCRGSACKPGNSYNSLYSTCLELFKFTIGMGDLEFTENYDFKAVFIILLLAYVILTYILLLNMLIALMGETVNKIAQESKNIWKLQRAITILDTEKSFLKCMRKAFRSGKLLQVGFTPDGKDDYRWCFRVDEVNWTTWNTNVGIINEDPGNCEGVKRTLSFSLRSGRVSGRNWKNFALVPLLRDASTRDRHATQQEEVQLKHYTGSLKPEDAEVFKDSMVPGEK
Method in brief: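 Compounds, as free base or TFA salt, tested from 10 μM in three-fold steps on rTRPV1-transfected HEK293 cells, with 30 min preincubation in low-calcium (20 μM) buffer. Capsaicin-evoked Ca2+ influx measured by FLIPR fluo3 signal before and 100 s after addition. Averaged IC50 from non-linear fits.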

| IC50 (human TRPV1) | IC50 (rat TRPV1) | Compound |
| --- | --- | --- |
| 1100 nM | 240 nM | Cc1cccc(C)c1Nc1nc2c(NC3CCC(C(C)(C)C)CC3)ncnc2s1 (single isomer, unassigned) [Example 248, N^7-(4-tert-Butyl-cyclohexyl)-N^2-(2,6-dimethyl-phenyl)-thiazolo[5,4-d]pyrimidine-2,7-diamine] |
| 758 nM | 345 nM | COC(=O)c1scc(C)c1Nc1nc2c(Nc3ccc(C(F)(F)F)c(Cl)c3)ncnc2s1 [Example 207, 3-[7-(3-Chloro-4-trifluoromethyl-phenylamino)-thiazolo[5,4-d]pyrimidin-2-ylamino]-4-methyl-thiophene-2-carboxylic acid methyl ester] |
| 63 nM | 19 nM | C[C@H]1COCCN1c1nc(Nc2ccc(C(F)(F)F)cc2)c2nc(Nc3c(Cl)cccc3Cl)sc2n1 [Example 192, (3S)-N^2-(2,6-Dichloro-phenyl)-5-(3-methyl-morpholin-4-yl)-N^7-(4-trifluoromethyl-phenyl)-thiazolo[5,4-d]pyrimidine-2,7-diamine] |
| 280 nM | 78 nM | Cc1nc(Nc2ccc3c(c2)N(C)CCC3)c2nc(Nc3c(Cl)cccc3Cl)sc2n1 [Example 139, N^2-(2,6-Dichloro-phenyl)-5-methyl-N^7-(1-methyl-1,2,3,4-tetrahydro-quinolin-7-yl)-thiazolo[5,4-d]pyrimidine-2,7-diamine] |
| 723 nM | 354 nM | Cc1cccc(C)c1Nc1nc2c(Nc3ccccc3)ncnc2s1 [Example 147, N^2-(2,6-Dimethyl-phenyl)-N^7-phenyl-thiazolo[5,4-d]pyrimidine-2,7-diamine] |
| 809 nM | 1320 nM | CN1CCN(c2nc(Nc3ccc(C(F)(F)F)cc3)c3nc(Nc4c(Cl)cccc4Cl)sc3n2)CC1 [Example 187, N^2-(2,6-Dichloro-phenyl)-5-(4-methyl-piperazin-1-yl)-N^7-(4-trifluoromethyl-phenyl)-thiazolo[5,4-d]pyrimidine-2,7-diamine] |
| 5530 nM | 1580 nM | Cc1noc(C)c1Nc1nc2c(Nc3ccc(S(C)(=O)=O)cc3)ncnc2s1 [Example 224, N^2-(3,5-Dimethylisoxazol-4-yl)-N^7-[4-(methylsulfonyl)phenyl][1,3]thiazolo[5,4-d]pyrimidine-2,7-diamine] |
| 2150 nM | 1080 nM | CS(=O)(=O)c1ccccc1Nc1nc2c(Nc3ccc(C(F)(F)F)nc3)ncnc2s1 [Example 199, N^2-(2-Methanesulfonyl-phenyl)-N^7-(6-trifluoromethyl-pyridin-3-yl)-thiazolo[5,4-d]pyrimidine-2,7-diamine] |
| 24 nM | 15 nM | O=S(=O)(c1ccc(Nc2ncnc3sc(Nc4ccccc4Cl)nc23)cc1)N1CCOCC1 [Example 216, N^2-(2-Chlorophenyl)-N^7-[4-(morpholin-4-ylsulfonyl)phenyl][1,3]thiazolo[5,4-d]pyrimidine-2,7-diamine] |
| 820 nM | 3200 nM | COC(=O)c1cc(Cl)c(Nc2nc3c(Nc4ccc(C(F)(F)F)cc4)ncnc3s2)c(Cl)c1 [Example 241, 3,5-Dichloro-4-[7-(4-trifluoromethyl-phenylamino)-thiazolo[5,4-d]pyrimidin-2-ylamino]-benzoic acid methyl ester] |
| 937 nM | 204 nM | Cc1cccc(C)c1Nc1nc2c(Nc3ccc4c(c3)OCCO4)ncnc2s1 [Example 150, N^7-(2,3-Dihydro-benzo[1,4]dioxin-6-yl)-N^2-(2,6-dimethyl-phenyl)-thiazolo[5,4-d]pyrimidine-2,7-diamine] |
| 159 nM | 12 nM | CC1CCCCN1c1nc(Nc2ccc(S(C)(=O)=O)cc2)c2nc(Nc3c(Cl)cccc3Cl)sc2n1 (racemic) [Example 179, (racemic)-N^2-(2,6-Dichloro-phenyl)-N^7-(4-methanesulfonyl-phenyl)-5-(2-methyl-piperidin-1-yl)-thiazolo[5,4-d]pyrimidine-2,7-diamine] |
| 64 nM | 37 nM | CSc1ccccc1Nc1nc2c(Nc3ccc(C(F)(F)F)cc3)ncnc2s1 [Example 196, N^2-(2-Methylsulfanyl-phenyl)-N^7-(4-trifluoromethyl-phenyl)-thiazolo[5,4-d]pyrimidine-2,7-diamine] |
| 287 nM | 60 nM | CS(=O)(=O)c1ccc(Nc2nc(N3CCOCC3)nc3sc(Nc4c(Cl)cccc4Cl)nc23)cc1 [Example 178, N^2-(2,6-Dichloro-phenyl)-N^7-(4-methanesulfonyl-phenyl)-5-morpholin-4-yl-thiazolo[5,4-d]pyrimidine-2,7-diamine] |
| 35 nM | 36 nM | COC[C@@H]1CCCN1c1nc(Nc2ccc(C(F)(F)F)cc2)c2nc(Nc3c(Cl)cccc3Cl)sc2n1 [Example 193, (2S)-N^2-(2,6-Dichloro-phenyl)-5-(2-methoxymethyl-pyrrolidin-1-yl)-N^7-(4-trifluoromethyl-phenyl)-thiazolo[5,4-d]pyrimidine-2,7-diamine] |

The remaining lines, values behind:

| Compound | IC50 (human TRPV1) | IC50 (rat TRPV1) |
| --- | --- | --- |
| Cc1cccc(Cl)c1Nc1nc2c(Nc3ccc(C(F)(F)F)cc3)ncnc2s1 [Example 14, N^2-(2-Chloro-6-methyl-phenyl)-N^7-(4-trifluoromethyl-phenyl)-thiazolo[5,4-d]pyrimidine-2,7-diamine] | 11 nM | 1 nM |
| CS(=O)(=O)c1ccc(Nc2ncnc3sc(Nc4ccccc4Cl)nc23)cc1 [Example 126, N^2-(2-Chloro-phenyl)-N^7-(4-methanesulfonyl-phenyl)-thiazolo[5,4-d]pyrimidine-2,7-diamine] | 129 nM | 30 nM |
| Cc1nc(Nc2ccc(C)c(F)c2)c2nc(Nc3c(C)cccc3C)sc2n1 [Example 133, N^2-(2,6-Dimethyl-phenyl)-N^7-(3-fluoro-4-methyl-phenyl)-5-methyl-thiazolo[5,4-d]pyrimidine-2,7-diamine] | 175 nM | 107 nM |
| COc1nc(Nc2ccc(C(F)(F)F)cc2)c2nc(Nc3c(Cl)cccc3Cl)sc2n1 [Example 55, N^2-(2,6-Dichloro-phenyl)-5-methoxy-N^7-(4-trifluoromethyl-phenyl)-thiazolo[5,4d]pyrimidine-2,7-diamine] | > 20000 nM | > 20000 nM |
| Cc1nc(Nc2ccc(C(F)(F)F)nc2)c2nc(Nc3c(Cl)cccc3Cl)sc2n1 [Example 6, N^2-(2,6-Dichloro-phenyl)-5-methyl-N^7-(6-trifluoromethyl-pyridin-3-yl)-thiazolo[5,4-d]pyrimidine-2,7-diamine] | 5 nM | 1 nM |
| Cc1cccc(C)c1Nc1nc2c(Nc3ccc(C(F)(F)F)c(F)c3)ncnc2s1 [Example 108, N^2-(2,6-Dimethyl-phenyl)-N^7-(3-fluoro-4-trifluoromethyl-phenyl)-thiazolo[5,4-d]pyrimidine-2,7-diamine] | 26 nM | 14 nM |
| Cc1nc(Nc2ccc(SC(F)(F)F)c(Cl)c2)c2nc(Nc3c(Cl)cccc3Cl)sc2n1 [Example 135, N^7-(3-Chloro-4-trifluoromethylsulfanyl-phenyl)-N^2-(2,6-dichloro-phenyl)-5-methyl-thiazolo[5,4-d]pyrimidine-2,7-diamine] | 203 nM | 112 nM |
| Cc1cccc(C)c1Nc1nc2c(NC3Cc4ccccc4C3)ncnc2s1 [Example 41, N^2-(2,6-Dimethyl-phenyl)-N^7-indan-2-yl-thiazolo[5,4-d]pyrimidine-2,7-diamine] | > 6670 nM | 2040 nM |
| Cc1cccc(C)c1Nc1nc2c(Nc3ccc(C(F)(F)F)cc3)ncnc2s1 [Example 10, N^2-(2,6-Dimethyl-phenyl)-N^7-(4-trifluoromethyl-phenyl)thiazolo[5,4,d]pyrimidine-2,7-diamine] | 26 nM | 6 nM |
| Cc1nc(Nc2ccc(C(F)(F)F)cc2)c2nc(Nc3c(-c4ccccc4)noc3C)sc2n1 [Example 27, 5-Methyl-N^2-(5-methyl-3-phenyl-isoxazol-4-yl)-N^7-(4-trifluoromethyl-phenyl)-thiazolo[5,4-d]pyrimidine-2,7-diamine] | 91 nM | 25 nM |
| Cc1ccccc1Nc1nc2c(Nc3ccc(S(=O)(=O)N4CCCC4)cc3)ncnc2s1 [Example 83, N^7-[4-(Pyrrolidine-1-sulfonyl)-phenyl]-N^2-o-tolyl-thiazolo[5,4-d]pyrimidine-2,7-diamine] | 3 nM | 2 nM |
| FC(F)(F)c1ccc(Nc2nc(N3CCOCC3)nc3sc(Nc4c(Cl)cccc4Cl)nc23)cc1 [Example 64, N^2-(2,6-Dichloro-phenyl)-5-morpholin-4-yl-N^7-(4-trifluoromethyl-phenyl)-thiazolo[5,4-d]pyrimidine-2,7-diamine] | 41 nM | 17 nM |
| CSc1ccc(Nc2nc(C)nc3sc(Nc4c(Cl)cccc4Cl)nc23)cc1 [Example 94, N^2-(2,6-Dichloro-phenyl)-5-methyl-N^7-(4-methylsulfanyl-phenyl)-thiazolo[5,4-d]pyrimidine-2,7-diamine] | 8 nM | 3 nM |
| Cc1ccccc1Nc1nc2c(Nc3ccc(C(F)(F)F)cc3)ncnc2s1 [Example 17, N^2-o-Tolyl-N^7-(4-trifluoromethyl-phenyl)-thiazolo[5,4-d]pyrimidine-2,7-diamine] | 70 nM | 19 nM |
| Cc1cccc(C)c1Nc1nc2c(Nc3ccc(C(F)(F)F)nc3)ncnc2s1 [Example 11, N^2-(2,6-Dimethyl-phenyl)-N^7-(6-trifluoromethyl-pyridin-3-yl)-thiazolo[5,4-d]pyrimidine-2,7-diamine] | 23 nM | 7 nM |
